Source: US12121510B2 (Cedars-Sinai Medical Center, priority 2016, dated 2024)
Like-named read-outs stand apart in the source and are kept apart here.

Key:
[1] = test system: A549/DDP (Cisplatin Resistant); assay: Cell proliferation IC50, Crystal Violet assay; type: cell-based, human; conditions: 72 h
22Rv1 = assay: Cancer cell growth IC50 (crystal violet); type: cell-based, human; conditions: Example 15
Text: (§1) Exemplary Embodiments are generally performed as follows, unless otherwise noted. Simvastatin is purchased from Ark Pharm, Inc. (Arlington Heights, IL). Cisplatin (CIS) is purchased from MedKoo Biosciences, Inc. (Chapel Hill, NC). Dihydroartemisinin is purchased from TCI America (Portland, OR). All other chemicals and reagents are purchased from standard sources such as Sigma-Aldrich and/or VWR and are of highest quality available. Puromycin dihydrochloride was purchased from Alfa Aesar (Tewksbury, MA). Deionized water ([…]) used for making solutions is obtained from Milli-Q Direct Ultrapure Water System from Millipore (Billerica, MA, USA). All intermediates are characterized by 1H NMR and mass analysis and the purity of compounds are analyzed by HPLC. 1H NMR data are collected on Bruker 400 MHz spectrometers using standard parameters; chemical shifts are reported in ppm (δ) in reference to residual non-deuterated solvent. ESI mass spectroscopy analysis is performed using a Thermo Fisher LTQ Orbitrap Elite system. IC50 is the half maximal inhibitory concentration and determined is determined by crystal violet assay unless otherwise noted.
(§2) The crystal violet assay is performed as follows, unless otherwise noted. Cell lines are supplemented with RPMI 1640 medium, 10% fetal bovine serum, 1% PenStrep, and placed in a humidified atmosphere containing 5% CO2 at 37° C. 5,000 cells/well renal cancer cells and 10,000 cells/well lymphoma cells are seeded in 96 well plates in 100 microliter medium/per well for 24 h. […] Renal cancer cells are fixed with 3.7% paraformaldehyde for 15 minutes and are stained with Crystal violet solution (0.5% in 25% methanol) for 30 minutes. After rinsing with water cell layers are dried and decolorized with Sorenson citrate with shaking for 20 minutes. Light absorption of the extracted supernatant is read at 595 nm. Lymphoma cell growth was evaluated using MTT and cells are incubated for 4 hours. 100 microliters of isopropanol is added, and the extracted supernatant fraction is read at absorption maximum of 595 nm. […]

ARCaP-E = assay: Cancer cell growth IC50 (crystal violet); type: cell-based; conditions: Example 15
Text: as §1
(§3) The crystal violet assay is performed as follows, unless otherwise noted. Cell lines are supplemented with RPMI 1640 medium, 10% fetal bovine serum, 1% PenStrep, and placed in a humidified atmosphere containing 5% CO2 at 37° C. 5,000 cells/well renal cancer cells and 10,000 cells/well lymphoma cells are seeded in 96 well plates in 100 microliter medium/per well for 24 h. […] Renal cancer cells are fixed with 3.7% paraformaldehyde for 15 minutes and are stained with Crystal violet solution (0.5% in 25% methanol) for 30 minutes. After rinsing with water cell layers are dried and decolorized with Sorenson citrate with shaking for 20 minutes. Light absorption of the extracted supernatant is read at 595 nm. Lymphoma cell growth was evaluated using MTT and cells are incubated for 4 hours. 100 microliters of isopropanol is added, and the extracted supernatant fraction is read at absorption maximum of 595 nm.
(§4) Standard cell culture conditions typically are RPMI 1640 medium, 10% fetal bovine serum, 1% PenStrep, and are performed in a humidified atmosphere containing 5% CO2 at 37° C. Generally, 5,000 cells/well-10,000 cells/well are seeded in 96 well plates in 100 microliter medium/per well for 24 h, or as described in Example 16, unless otherwise noted. Certain cells require specialized media, growth factors, antibiotics, or culture condition adjustments, as will be apparent to a person of ordinary skill in the art.

ARCaP-M = assay: Cancer cell growth IC50 (crystal violet); type: cell-based; conditions: Example 15
Text: as §1, §3, §4

C4-2B = assay: Cancer cell growth IC50 (crystal violet); type: cell-based; conditions: Example 15
Text: as §1, §3, §4

C4-2 = assay: Cancer cell growth IC50 (crystal violet); type: cell-based; conditions: Example 15; C4-2
Text: as §1, §3, §4

CAOV-3 = assay: Cancer cell growth IC50 (crystal violet); type: cell-based; conditions: Example 15
Text: as §1, §3, §4

FUOV-1 = assay: Cancer cell growth IC50 (crystal violet); type: cell-based; conditions: Example 15
Text: as §1, §3, §4

H358 = assay: Cancer cell growth IC50 (crystal violet); type: cell-based; conditions: Example 15
Text: as §1, §3, §4

HepG2 = assay: Cancer cell growth IC50 (crystal violet); type: cell-based; conditions: Example 15
Text: as §1, §3, §4

LNCaP = assay: Cancer cell growth IC50 (crystal violet); type: cell-based; conditions: Example 15
Text: as §1, §3, §4

MCF-7 = assay: Cancer cell growth IC50 (crystal violet); type: cell-based; conditions: Example 15
Text: as §1, §3, §4

PC3M = assay: Cancer cell growth IC50 (crystal violet); type: cell-based; conditions: Example 15
Text: as §1, §3, §4

PC3 = assay: Cancer cell growth IC50 (crystal violet); type: cell-based; conditions: Example 15
Text: as §1, §3, §4

U87 = assay: Cancer cell growth IC50 (crystal violet); type: cell-based; conditions: Example 15
Text: as §1, §3, §4

MIAPaCa II = assay: Cancer cell growth IC50 / sensitization (crystal violet); type: cell-based; conditions: Example 15
Text: as §1, §2

OV90 = assay: Ovarian cancer cell growth IC50 (crystal violet); type: cell-based, human
Text: as §1, §4
(§5) OV90 and OVCA433 are grown in vitro according to their standard culturing conditions, and an assay such as the crystal violet assay is performed.

OVCA 433 = assay: Ovarian cancer cell growth IC50 (crystal violet); type: cell-based, human
Text: as §1, §4, §5

[2] = test system: Ramos, a B-cell lymphoma, cultured as 3-D spheroids; assay: Cell viability IC50 in 3-D spheroids; type: cell-based, human; conditions: Ramos 3-D spheroids; 72 h; single agent
Text: as §1
Cancer cells were Ramos, a B-cell lymphoma, cultured as 3-D spheroids, cultured according to their standard culturing conditions.

[3] = test system: human lymphoma cell lines (Daudi, Raji, Namalwa, Ramos and CA-46); assay: Growth IC50 in lymphoma cell line panel; type: cell-based; conditions: all lymphoma cell lines; 72 hours; read-out: IC50 across lymphoma cell lines
Protocol: as §3

[4] = test system: human kidney carcinoma cell lines (ACHN, Caki-1, 0-786, SKRC); assay: Growth IC50 in kidney carcinoma cell line panel; type: cell-based; conditions: all kidney cancer cell lines; 72 hours; read-out: IC50 across kidney cancer cell lines
Protocol: as §3
The significance for all results was p<0.0001.

OV90 and OVCA 433 = assay: Growth IC50 in ovarian cancer cell strains; type: cell-based, human; conditions: 72 h; read-out: IC50 across ovarian cancer cell strains OV90 and OVCA 433
Protocol: as §5

Namalwa xenograft tumors = assay: Burkitt lymphoma xenograft tumor growth; type: in vivo; conditions: Example 5; NCr Nu/Nu (10 μM) and NOD-SCID (5 μM) mice; 2 times a week; versus CIS or vehicle, p<0.05
Protocol: Representative results are illustrated in FIG. 5. DZ-CIS is administered to tumors as follows. 15 mice each (NCr Nu/Nu, right panel of FIG. 5, and NOD-SCID, left panel) are injected with Human Burkitt lymphoma cell line, Namalwa cells (10^3), producing 4 xenograft tumors per mouse.

Work on N.N.[Cl][Pt][Cl] [CIS, cis-diamminedichloridoplatinum (II)] yielded an IC50 ([1]; A549/DDP (Cisplatin Resistant), single agent, mean ± SEM, read-out: IC50) of 90 ± 1 µM, an IC50 ([1]; read-out: IC50 of CIS, Mean, A549/DDP, CIS alone) of 87.6 µM and an IC50 (22Rv1) of over 64 µM. For the same compound, the IC50 (ARCaP-E) was over 64 µM, the IC50 (ARCaP-M) was over 64 µM and the IC50 (C4-2B) was over 64 µM. It also gave an IC50 (C4-2) of over 64 µM, an IC50 (CAOV-3) of 13.4 µM and an IC50 (FUOV-1) of 27.5 µM. It also gave an IC50 (H358) of over 64 µM, an IC50 (HepG2) of over 64 µM and an IC50 (LNCaP) of over 64 µM. It also gave an IC50 (MCF-7) of 39.5 µM, an IC50 (PC3M) of over 64 µM and an IC50 (PC3) of 48.7 µM. It also gave an IC50 (U87) of over 64 µM, an IC50 (MIAPaCa II) of over 64 µM and an IC50 (OV90; 72 h) of over 64 µM. The IC50 (OV90; Example 15) was over 64 µM, the IC50 (OVCA 433; Example 15, OV433) was over 64 µM and the IC50 (OVCA 433; OVCA 433, 72 h) was over 64 µM. For the same compound, the IC50 [2] was 81.5 µM, the IC50 [3] was over 64 µM and the IC50 [4] was over 64 µM. For the same compound, the IC50 (OV90 and OVCA 433) was over 64 µM and the “Tumor volume, Namalwa xenograft” value (Namalwa xenograft tumors) was “not CIS alone”.
